Measured values: the supplement of paper PMC10307832

Key:
Assay in all cases: relative viability (nuclei count vs DMSO), 5 days (fraction); higher = more cells survive
[1] = compound: CCOC(=O)CCNc1cc(N2CCc3ccccc3CC2)nc(-c2ccccn2)n1 [GSK-J4] + Cc1cc(Nc2cc(N3CCN(C)CC3)nc(Sc3ccc(NC(=O)C4CC4)cc3)n2)n[nH]1 [Tozasertib] (partner 0.1 µM)
How it was run: (§1)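 Relative viability equals treated-well nuclei counts divided by vehicle-well nuclei counts. Counts came from 4× images of lung cancer cell lines grown in 1536-well plates for 5 days after pin-tool dosing on the day after seeding. Dosing used one drug alone or a fixed anchor-drug dose plus five library-drug doses (not always all listed) in √10 steps, and values are medians of duplicate plates.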

[2] = compound: CN1CCC(CC1)OC2=CC(=C(C=C2)NC3=NC=C4C(=N3)N(C(=O)N4C)C5CCCC5)OC [AZ3146] + CC(C)C[C@H](NC(=O)[C@H](Cc1ccccc1)NC(=O)c1cnccn1)B(O)O [Bortezomib] (partner 0.002 µM)
How it was run: as §1

[3] = compound: CCOC(=O)CCNc1cc(N2CCc3ccccc3CC2)nc(-c2ccccn2)n1 [GSK-J4] + N=C(N)NC(=N)NCCc1ccccc1 [Phenformin] (partner 250 µM)
How it was run: as §1

[4] = compound: CN1CCC(CC1)OC2=CC(=C(C=C2)NC3=NC=C4C(=N3)N(C(=O)N4C)C5CCCC5)OC [AZ3146] + CS(=O)(=O)CCNCc1ccc(-c2ccc3ncnc(Nc4ccc(OCc5cccc(F)c5)c(Cl)c4)c3c2)o1 [Lapatinib] (partner 2 µM)
How it was run: as §1

Cell Line | relative viability ([1]; first compound 0.5 µM) | relative viability ([1]; first compound 15.81 µM) | relative viability ([1]; first compound 50 µM) | relative viability ([2]; first compound 0.08 µM) | relative viability ([2]; first compound 0.253 µM) | relative viability ([2]; first compound 0.8 µM) | relative viability ([2]; first compound 2.53 µM) | relative viability ([2]; first compound 8 µM) | relative viability ([3]; first compound 0.5 µM) | relative viability ([3]; first compound 15.81 µM) | relative viability ([3]; first compound 50 µM) | relative viability ([4]; first compound 0.08 µM) | relative viability ([4]; first compound 0.253 µM) | relative viability ([4]; first compound 0.8 µM) | relative viability ([4]; first compound 2.53 µM) | relative viability ([4]; first compound 8 µM) | relative viability ([1]; first compound 5 µM) | relative viability ([3]; first compound 5 µM) | relative viability ([1]; first compound 1.581 µM) | relative viability ([3]; first compound 1.581 µM)
HARA | 0.124 | 0.103 | 0.117 | 1.04 | 1.15 | 1.15 | 1.14 | 0.533 | 0.455 | 0.396 | 0.386 | 0.652 | 0.851 | 0.662 | 0.822 | 0.693 |  |  |  | 
HCC-15 | 0.393 | 0.319 | 0.2 | 1.01 | 1.08 | 1.02 | 1.12 | 1.04 | 0.458 | 0.384 | 0.344 | 0.873 | 0.819 | 0.896 | 0.857 | 0.832 | 0.344 | 0.376 |  | 
IA-LM |  |  |  | 0.643 | 0.775 | 0.759 | 0.695 | 0.264 |  |  |  |  | 0.955 | 0.718 | 0.72 | 0.49 |  |  |  | 
LCLC-103H | 0.515 | 0.444 | 0.332 | 0.993 | 1.03 | 1 | 0.994 | 0.965 | 0.32 | 0.331 | 0.33 |  |  |  |  |  | 0.526 | 0.224 | 0.434 | 0.296
LK-2 | 0.165 | 0.164 | 0.147 |  |  |  |  |  | 0.707 | 0.23 | 0.253 | 0.754 | 0.961 | 0.914 | 1.01 | 0.841 | 0.167 | 0.416 |  | 
NCI-H358 | 0.087 | 0.113 | 0.129 |  |  |  |  |  | 0.443 | 0.266 | 0.255 | 0.595 | 0.471 | 0.377 | 0.384 | 0.435 | 0.0969 | 0.349 | 0.0898 | 0.264
NCI-H441 | 0.595 | 0.559 | 0.494 | 0.394 | 0.743 | 0.602 | 1.02 | 0.346 | 0.819 | 0.805 | 0.809 |  |  |  |  |  | 0.526 | 0.641 | 0.634 | 0.852
NCI-H522 | 0.541 | 0.515 | 0.485 |  |  |  |  |  | 0.64 | 0.543 | 0.588 |  |  |  |  |  | 0.502 | 0.595 | 0.608 | 0.656
NCI-H1299 |  |  |  | 0.965 | 0.965 | 1.05 | 1.01 | 1.01 |  |  |  | 0.892 | 0.97 | 0.985 | 0.958 | 0.787 |  |  |  | 
NCI-H1395 | 0.806 | 0.687 | 0.614 |  |  |  |  |  | 0.418 | 0.421 | 0.443 | 0.853 | 0.915 | 0.997 | 1.19 | 0.999 | 0.728 | 0.372 | 0.864 | 0.459
NCI-H1563 |  |  |  | 0.703 | 0.82 | 0.826 | 1.01 | 0.77 | 0.665 | 0.56 | 0.656 | 0.695 | 0.881 | 0.951 | 0.927 | 0.873 |  | 0.607 |  | 0.71
NCI-H1623 | 0.437 | 0.435 | 0.451 |  |  |  |  |  | 0.597 | 0.398 | 0.545 |  |  |  |  |  | 0.455 | 0.623 | 0.467 | 0.457
NCI-H1648 | 0.44 | 0.324 | 0.307 |  |  |  |  |  |  |  |  |  |  |  |  |  | 0.978 |  |  | 
NCI-H1703 |  |  |  | 0.213 | 0.485 | 0.292 | 0.275 | 0.275 |  |  |  | 1.16 | 1.26 | 0.953 | 0.892 | 0.372 |  |  |  | 
NCI-H1792 |  |  |  | 0.784 | 1.04 | 1.05 | 0.976 | 1 | 0.267 | 0.529 | 0.318 | 0.854 | 1.09 | 0.868 | 0.936 | 0.954 |  | 0.185 |  | 0.258
NCI-H1793 | 0.331 | 0.266 | 0.286 |  |  |  |  |  | 0.446 | 0.294 | 0.228 | 0.649 | 0.853 | 0.492 | 0.805 | 0.497 | 0.305 | 0.281 | 0.315 | 0.29
NCI-H1944 | 0.257 | 0.243 | 0.255 |  |  |  |  |  | 0.2 | 0.155 | 0.174 |  | 0.801 | 0.819 | 0.837 | 0.987 | 0.248 | 0.124 | 0.238 | 0.193
NCI-H2170 | 0.599 | 0.759 | 0.512 |  |  |  |  |  | 0.38 | 0.387 | 0.275 | 0.265 | 0.283 | 0.252 | 0.273 | 0.277 | 0.692 | 0.341 | 0.544 | 0.352
NCI-H2342 | 0.427 | 0.557 | 0.529 |  |  |  |  |  | 0.652 | 0.706 | 0.595 |  |  |  |  |  | 0.482 | 0.573 | 0.664 | 0.629
SK-MES-1 | 0.821 | 0.856 | 0.524 |  |  |  |  |  | 0.582 | 0.565 | 0.371 | 0.496 | 0.43 | 0.424 | 0.523 | 0.432 | 0.736 | 0.594 | 0.854 | 0.585
SW 900 | 0.478 | 0.408 | 0.333 |  |  |  |  |  | 0.581 | 0.402 | 0.246 |  |  |  |  |  | 0.696 | 0.617 | 0.463 | 0.592
